Broadly, the Ki is the equilibrium dissociation constant of an inhibitor or competing ligand from its target. For orientation: EC50 means the concentration that produces a half-maximal response.

The values that follow come from US20240398781A1, “SPIROCYCLIC CYCLIC MODULATORS OF CHOLESTEROL BIOSYNTHESIS AND THEIR USE FOR PROMOTING REMYELINATION” (GENENTECH, INC., priority 2021, published 2024).

Like-named read-outs stand apart in the source and are kept apart here.

One assay addresses human EBP (Homo sapiens (Human), UniProt Q15125). Put plainly: Competition binding assay (SPA, [3H]-Ifenprodil) to determine compound affinity to EBP. As to conditions: [3H]-Ifenprodil 10 nM, HEK293 membrane overexpressing human EBP, Ki=IC50/(1+[L]/Kd); read-out: hEBP SPA Ki. The procedure, abridged:
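Membranes from HEK293 cells overexpressing human EBP, on SPA beads (0.3 mg beads, 5 µg membrane/well) in Tris/MgCl2/EDTA buffer pH 7.5 with 0.01% BSA and 0.1% DMSO, competed against [3H]-ifenprodil for 3 h to equilibrium. Compounds were tested at 1 µM single dose or 0.06 nM–5 µM; IC50 came from nonlinear fit, and Ki=IC50/(1+[L]/Kd).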

The subject of assay [1] is EBP (zymostenol accumulation in EpiSC-derived OPCs). Put plainly: GC/MS-based sterol profiling, zymostenol accumulation in OPCs. It counts as cell-based, mouse. As to conditions: read-out: Zymostenol GCMS EC50. The gist of the method:
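EpiSC-derived OPCs (100,000/well) were treated 24 h in N2B27 without growth factors. Sterols were TMS-derivatized and analysed by GC/MS full-scan EI, quantified against cholesterol-d7. Zymostenol was normalized to the level after 24 h with 100 nM positive control reference.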

The test system of a further assay is EpiSC-derived OPCs. Nature of the assay: In vitro phenotypic screening of OPCs (MBP staining, high-content imaging). It counts as cell-based, mouse. The settings on record: percentage of MBP+ oligodendrocytes, 3 days, 0.5 nM to 1000 nM, read-out: OPC EC50. The gist of the method: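 EpiSC-derived mouse OPCs seeded at 150,000/cm^2 on laminin in N2B27 without growth factors, treated 3 days at 37° C. with compound (8 points, 1000 nM to 0.5 nM). Fixed cells stained for MBP and DAPI and imaged; percentage of MBP+ oligodendrocytes fitted by Hill equation for EC50.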

The mark [2] stands for this setting: Mus musculus, 24 h, EpiSC-derived OPCs, 24 hr treatment, 8 doses from 0.15 nM to 333 nM.

Chain of human EBP (Q15125 whole entry): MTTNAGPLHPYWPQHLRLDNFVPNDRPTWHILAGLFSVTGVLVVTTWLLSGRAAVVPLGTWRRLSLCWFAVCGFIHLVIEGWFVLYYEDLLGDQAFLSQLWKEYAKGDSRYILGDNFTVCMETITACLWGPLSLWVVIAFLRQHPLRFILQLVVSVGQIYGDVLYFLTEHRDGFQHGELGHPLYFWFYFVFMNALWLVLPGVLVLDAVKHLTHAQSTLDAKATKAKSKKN

In the case of `CC(C)n1cc(C(F)(F)F)nc1[C@@H]1CC[C@@H](N2CCC3(C2)CS(=O)(=O)C3)C1` (single isomer, unassigned) [20B*], at human EBP, the Ki came out at 55 nM. Further, the EC50 in assay [1] (Mus musculus, 24 h) was determined as 19 nM; in the assay on EpiSC-derived OPCs (Mus musculus, 72 h), 340 nM.

For the molecule `Cn1nc(C(F)(F)F)cc1[C@H]1CC[C@H](N2CCC3(C2)CS(=O)(=O)C3)CC1` [Compound 2B, 6-((1r,4r)-4-(1-methyl-3-(trifluoromethyl)-1H-pyrazol-5-yl)cyclohexyl)-2-thia-6-azaspiro[3.4]octane 2,2-dioxide], the Ki on human EBP turned out to be 20 nM. The EC50 is 12 nM in assay [1] (setting [2]) and 48 nM with EpiSC-derived OPCs (Mus musculus, 72 h).

As for `Cn1nc(C(F)(F)F)cc1[C@H]1CC[C@H](N2CC[C@@]3(CCS(=O)(=O)C3)C2)CC1` (single isomer, unassigned) [38D*], the Ki on human EBP was found to be 27 nM. In addition, the EC50 in assay [1] (EpiSC-derived OPCs, 24 hr treatment, 8 doses from 0.15 nM to 333 nM) amounted to 40 nM; with EpiSC-derived OPCs, 200 nM.

Consider `O=S1(=O)CC2(CCN([C@H]3CC[C@@H](c4ccc(C(F)(F)F)nc4)CC3)C2)C1` [Compound 14B, 6-((1s,4s)-4-(6-(Trifluoromethyl)pyridin-3-yl)cyclohexyl)-2-thia-6-azaspiro[3.4]octane 2,2-dioxide], for which, at human EBP, the inhibitory constant (Ki) is 30 nM. The EC50 in assay [1] (setting [2]) stood at 43 nM; in the assay on EpiSC-derived OPCs (Mus musculus, 72 h) it was 240 nM.
